Experimental data published in US9820988B2, “Treatment of epileptic disorders in feline animals” (Boehringer Ingelheim Vetmedica GmbH, priority 2014, dated 2017).
Like-named read-outs stand apart in the source and are kept apart here.

Tests used:
[1] = test system: treated cats; settings: cited from earlier work
[2] = test system: feline amygdala or hippocampal kindled seizures; settings: partial onset and secondarily generalized limbic seizures; cited from earlier work
[3] = Pharmacokinetics of imepitoin in cats after oral administration (Example 1); type: in vivo, cat; settings: for Tmax / Cmax / AUC(0-t): po; for Tmax: 30 mg/kg; for Cmax / AUC(0-t): Day 0, first dose of 30 mg/kg; for AUC(0-t): read-out: AUC0-6h
Experimental: FIG. 1 Mean plasma concentration-time curves of imepitoin after the first oral dose of 30 mg/kg imepitoin in male (M) and female cats (F) at Day 0, Day 14 and Day 29 (semi-logarithmic scale).
When administered orally at a preferred dose of e.g. 30 mg/kg bodyweight twice daily (60 mg/kg bodyweight daily dose) imepitoin the highest plasma concentration […] is reached in median 1 hour (range 0.5 to 3 hours) after administration, in most cases 1 hour.
Corresponding AUC0-6h-values are 28001 ng·h/mL and 24467 ng·h/mL, respectively.

[4] = test system: clinically healthy male and female cats; test: Safety 1: tolerance in clinically healthy cats after repeated oral administration for 30 days; type: in vivo, cat
Excerpt: In a randomized, controlled, blinded study the tolerance of imepitoin is investigated in clinically healthy male and female cats after repeated oral administration for 30 days.
Twelve 1-3 years old, male and female domestic short hair cats with a body weight range of 2.8-4.4 kg are assigned to this study. The animals are randomly allocated to two groups, three male and three female animals per group. The test article (imepitoin) is orally administered to the animals of group II at a target dose of 30 mg imepitoin/kg bodyweight twice daily at an interval of 8-12 h on days 0-29. Group I is left untreated serving as controls.

[5] = test system: clinically healthy male and female cats; test: Safety 2: repeated oral administration of 40 and 80 mg/kg twice daily for 30 days, placebo controlled; type: in vivo, cat
Experimental: FIG. 3 Measurement of Alkaline Phosphatase (AP) in serum following administration of imepitoin in doses of 40 or 80 mg/kg bodyweight twice daily, or placebo. AP is routinely used to judge liver function and diagnose liver pathologies, and an elevated AP is indicative for a variety of diseases. […] Day 0 reflects measurement before treatment start.
Eighteen 9 months old, male and female domestic short hair cats with a body weight range of 2.3-4.9 kg are assigned to this study. The animals are allocated to three test groups employing a pseudo-random body weight stratification procedure that yielded groups with approximately equal mean body weight, with three male and three female animals per group. The test article (imepitoin) is orally administered to the animals at a target dose of 40 mg imepitoin/kg bodyweight and 80 mg imepitoin/kg bodyweight twice daily at an interval of 8-12 h on days 0-30. The third group receives visually identical placebo tablets, to avoid identification of the Placebo Group.
Physical examination a day before treatment start and on study days 7, 14 and 30 includes body temperature (rectal), ocular system, musculoskeletal system, cardiovascular system, reproductive system, lymphatic system, behavior, nervous system, integumentary system, respiratory system, urinary system and gastro-intestinal system. In addition, blood and urine samples are analyzed before treatment and after 30 days.

[6] = test system: cats with epilepsy; test: Efficacy 1: two cats diagnosed with epilepsy, severe generalized seizures; type: in vivo, cat
Experimental: Two cats are diagnosed with epilepsy, having severe generalized seizures.
The first cat, a 14 year old European Short-Hair cat, had two severe generalized seizures. Both lasted around two minutes, the cat lost consciousness and was disoriented after the seizure. In addition, a fibrosarcoma and hyperthyroidism was diagnosed. The cat was treated twice a day with 100 mg imepitoin, being a dose of 25 mg/kg bodyweight. […] This resolved spontaneously after 10 days of treatment.
The second cat, 7 years old, experienced two generalized seizures on two consecutive days, and the diagnosis was epilepsy of unknown cause. The cat appeared to be sleepier in the time before occurrence of first seizure.

[7] = test system: feline patients with epilepsy; test: Efficacy 2: seizure frequency and severity in feline patients versus untreated status at diagnosis; type: in vivo, cat
Excerpt: In some animals, treatment with current standard of care, phenobarbital, is not effective and results in frequent severe seizures despite high-dose treatment.

[8] = test system: cats with drug resistant epilepsy; test: Efficacy 4: cats with drug-resistant (phenobarbital) epileptic disorders switched to imepitoin; type: in vivo, cat
Experimental: Cats with epileptic disorders are treated with increasing doses of phenobarbital, starting from 3 mg/kg bodyweight twice daily up to the maximum tolerated dose. […] According to this treatment failure this represents drug-resistant epileptic disorders. The treatment of these cats with drug resistant epilepsy is now changed to imepitoin, provided at high doses as for example 30 mg/kg bodyweight twice daily.

[9] = test system: cats with epileptic disorders; test: Efficacy 3: imepitoin versus phenobarbital in two groups of cats with epileptic disorders
[10] = test system: healthy cats; settings: 20 mg/kg dose; cited from earlier work
[11] = female, domestic short hair, plasma, females (n=3)
[12] = male, domestic short hair, plasma, males (n=3)
[13] = 30 mg/kg bodyweight twice daily, days 0-29
[14] = 40 and 80 mg/kg body weight twice daily for 30 days
[15] = 40 and 80 mg/kg body weight twice daily, after 30 days
[16] = second cat, 10 mg/kg bodyweight twice daily
[17] = second cat, 20 mg/kg bodyweight twice daily
[18] = imepitoin 30 mg/kg twice daily, phenobarbital 3.5 mg/kg twice daily

## [Br-].[K+] [Bromide]
[1]; cats
  treated cats with idiosyncratic allergic pneumonitis: 35-42%
  treated cats with seizures controlled: about 35%

## CC[C@@H](C(N)=O)N1CCCC1=O [Levetiracetam]
[1]; cats with refractory epilepsy under phenobarbital treatment, 10 cats
  efficacy as add-on therapy: somewhat effective

## Cl.O=C(O)C1CCCN(CCC=C(c2ccccc2)c2ccccc2)C1 (stereo not shown) [SKF89976A]
[2]
  anticonvulsant effect on kindled seizures: potent anticonvulsant effects

## NCC(CC(=O)O)c1ccc(Cl)cc1 (stereo not shown) [baclofen]
[2]
  anticonvulsant effect on kindled seizures: did not show anticonvulsant effects

## C=CC(N)CCC(=O)O (stereo not shown) [gamma-vinyl GABA]
[2]
  anticonvulsant effect on kindled seizures: potent anticonvulsant effects

## O=C1N=C(N2CCOCC2)CN1c1ccc(Cl)cc1 [imepitoin, 1-(4-chlorophenyl)-4-(4-morpholinyl)-2,5-dihydro-1H-imidazol-2-one]
[3]; 30 mg/kg twice daily, Days 0-29
  accumulation upon long-term BID dosing: no accumulation occurs
[3]; after 14 and 29 days of twice daily dosing
  exposure compared to the first dosing day: slightly lower exposure
[3]; both sexes, domestic short hair, plasma, oral, 30 mg/kg bodyweight twice daily, read-out: tMax, median
  Tmax: 1 h
[3]; both sexes, domestic short hair, plasma, oral, 30 mg/kg bodyweight twice daily, read-out: tMax, range
  Tmax: 0.5 to 3 h
[3]; both sexes, domestic short hair, plasma, oral, 30 mg/kg bodyweight twice daily, read-out: half-life time t1/2 (converted)
  half-life: 1.5 h
[3]; [11]
  Cmax: 6.64 µg/mL
  AUC(0-t): 24.5 µg·h/mL
[3]; [12]
  Cmax: 7.05 µg/mL
  AUC(0-t): 28 µg·h/mL
[3]; oral 30 mg/kg
  time of last measurable concentration: more than 18 hours
[4]; 30 mg/kg bodyweight twice daily, FIGS. 2A+2B
  liver enzyme measurements versus untreated control: no difference between imepitoin-treated and untreated (control) animals
[4]; [13]
  Mortality: not observed
  effect on body weight development, food and water consumption, heart rate, respiratory rate and laboratory parameters (hematology, clinical chemistry, urinalysis): No evidence of a clear effect
  sedation: No sedation is observed in any animal
[4]; 30 mg/kg twice daily, from the second week of treatment onwards
  animals with temporary vomitus or choking: 3 of 6
[5]; [14]
  behavioral changes or sedation: not noted
  considerable adverse events: no considerable adverse events are observed
  emesis: intermittently observed in the second and third week of treatment
  tolerability: well tolerated by all cats
[5]; [15]
  hematological or biochemical abnormalities in blood examination: No hematological or biochemical abnormalities are noted
  urine analysis: physiological results
[5]; 40 or 80 mg/kg bodyweight twice daily, FIG. 3
  Alkaline Phosphatase (AP) in serum: in the physiological range with normal variance
[6]; first cat, 25 mg/kg bodyweight twice a day
  considerable adverse events: No considerable adverse events were observed
[6]; first cat, 25 mg/kg bodyweight twice a day, initially
  tiredness: tiredness 1-1.5 hours after application of the drug, which lasted for about two hours
[6]; first cat, 25 mg/kg then 20 mg/kg bodyweight twice a day
  duration of complete seizure freedom (observation period): 6 months
[6]; first cat, 14 years, 100 mg (25 mg/kg bodyweight) twice a day
  seizures under treatment: no further seizures
[6]; first cat, dose reduced to 20 mg/kg bodyweight after three months
  tiredness after dose reduction: the tiredness disappeared
[6]; [16]
  seizures under treatment: experienced again a seizure
  tiredness: resolved the tiredness
[6]; [17]
  duration of complete seizure freedom (observation period): 2.5 months
  tiredness or other adverse events: No tiredness or other adverse events were observed
[6]; second cat, 30 mg/kg bodyweight twice a day
  tiredness: showed the tiredness observed in the first cat already after treatment start
[6]; second cat, 7 years, 30 mg/kg bodyweight twice a day
  response to treatment: responded immediately to treatment
[7]; 30 mg/kg bodyweight twice daily
  seizure frequency and severity compared to untreated status at diagnosis: significantly reduced
[7]; 30 mg/kg bodyweight twice daily at an interval of 8-14 hours
  cats achieving seizure freedom: at least 40%
[7]; 30 mg/kg bodyweight twice daily, seizure-free cats
  considerable adverse events: do also not experience considerable adverse events
[7]; 20 to 60 mg/kg bodyweight two- or three-times daily
  seizure frequency and/or severity in animals in which phenobarbital is not effective: reduces seizure frequency and/or severity significantly
[8]; after change to imepitoin 30 mg/kg bodyweight twice daily, in most cases
  reduction of seizure frequency: at least 50%
[8]; cats with uncontrolled or continuing seizures under phenobarbital
  seizure status after transition from phenobarbital to imepitoin monotherapy: became seizure free
[9]; imepitoin 30 mg/kg bodyweight twice daily
  seizure freedom among well controlled cats: the majority of them reach seizure freedom
[9]; [18]
  cats poorly controlled / disease not adequately controlled: about 15%
  cats with well controlled epilepsy/seizures: 85%

## CCC1(c2ccccc2)C(=O)NC(=O)NC1=O [phenobarbital]
[1]; cats, recent study (Pakozdy et al. 2013)
  treated cases with sedation: over 40%
[9]; [18]
  cats poorly controlled / disease not adequately controlled: 30%
  cats with well controlled epilepsy/seizures: 70%
  treated cats experiencing at least one adverse event: 65%
[9]; phenobarbital 3.5 mg/kg bodyweight twice daily
  treated cats experiencing sedation as side effect: approximately 40%

## NC(=O)CCC/N=C(\c1ccc(Cl)cc1)c1cc(F)ccc1O [progabide]
[2]
  anticonvulsant effect on kindled seizures: potent anticonvulsant effects

## NS(=O)(=O)Cc1noc2ccccc12 [zonisamide]
[10]
  share of healthy cats with adverse reactions (anorexia, diarrhea, vomiting, somnolence, ataxia): Approximately half
